This is an account of results in PubChem BioAssay (NCI).

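Assay format: 96-well plates, 48-hour exposure. At the TGI there is no net growth.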

Some test systems named below: HOP-62 NSCLC; MALME-3M melanoma; OVCAR-3 ovarian; SW-620 colon; EKVX NSCLC; SR leukemia; UACC-257 melanoma; MDA-MB-231 breast; HS 578T breast.
Assay in all cases: NCI tumour cell line growth inhibition, 48 h

For the molecule `N#Cc1c(-c2ccco2)cc(-c2ccc(NCc3nc4ccccc4[nH]3)cc2)nc1N`, the TGI is 62.8 µM in the experiment with HOP-62 NSCLC, 51.5 µM in the experiment with MALME-3M melanoma, 41.8 µM in the experiment on OVCAR-3 ovarian and above 100 µM in the experiment on SW-620 colon.
In the case of `COC(=O)C(CCCC1(c2ccccc2)OCCO1)C(C)=O` (stereo not given), the TGI in the experiment on EKVX NSCLC, in the experiment on HOP-62 NSCLC, with MALME-3M melanoma, with OVCAR-3 ovarian, with SR leukemia and in the experiment on SW-620 colon was above 100 µM throughout. This molecule also had a TGI with UACC-257 melanoma above 100 µM.
For the molecule `COc1cccc(NC(=S)Nn2c(C)nc3ccccc3c2=O)c1`, the TGI in the experiment with HOP-62 NSCLC, in the experiment with MALME-3M melanoma, with SR leukemia, in the experiment with SW-620 colon and in the experiment with UACC-257 melanoma was above 100 µM each time.
For the molecule `CCCCc1c2c(nc3c1CCCC3O)/C(=C/c1ccccc1)CCC2` (stereo not given), the TGI in the experiment on EKVX NSCLC is 97.4 µM; in the experiment with HOP-62 NSCLC, above 100 µM; in the experiment with MALME-3M melanoma, 44.8 µM; in the experiment with OVCAR-3 ovarian, 35.9 µM; in the experiment on SR leukemia, 42 µM; in the experiment on SW-620 colon it was 64.2 µM. The same molecule registered a TGI in the experiment with UACC-257 melanoma of 96.6 µM.
For the molecule `COc1ccc2nc3ccc(OC)cc3c(S(=O)(=O)Cc3ccc([N+](=O)[O-])cc3)c2c1`, the TGI in the experiment with EKVX NSCLC, with HOP-62 NSCLC, in the experiment on MALME-3M melanoma, in the experiment with MDA-MB-231 breast, with OVCAR-3 ovarian and with SR leukemia was above 100 µM throughout. In addition, the TGI in the experiment with SW-620 colon and in the experiment on UACC-257 melanoma was above 100 µM each time.
For the molecule `Nc1nc(SCCNC(=O)CCc2ccc(O)cc2)nc2c1ncn2C1OC(CO)C(O)C1O` (stereo not given), the TGI in the experiment with HOP-62 NSCLC, in the experiment with MALME-3M melanoma, in the experiment with OVCAR-3 ovarian, in the experiment with SR leukemia, with SW-620 colon and in the experiment on UACC-257 melanoma was above 203 µM in each case.
In the case of `CC1(C)CC[C@]2(C)CC=C3[C@]4(C)CC[C@H]5C(C)(C)C(=O)CC[C@]5(C)[C@H]4CC[C@@]3(C)[C@H]2C1`, the TGI with EKVX NSCLC, in the experiment on HOP-62 NSCLC, in the experiment with HS 578T breast, in the experiment with MALME-3M melanoma, in the experiment on MDA-MB-231 breast and in the experiment on OVCAR-3 ovarian was above 100 µM throughout. In addition, the TGI in the experiment with SR leukemia, in the experiment on SW-620 colon and in the experiment with UACC-257 melanoma was above 100 µM in each case.
Take `CCOC(=O)CCC(NC(=O)c1ccc(Oc2nc3ccc(C(F)(F)F)cc3nc2-c2ccccc2)cc1)C(=O)OCC` (stereo not given): the TGI is 64 µM in the experiment on EKVX NSCLC; above 89.5 µM in the experiment with HOP-62 NSCLC; 9.34 µM in the experiment on HS 578T breast; 44.9 µM in the experiment on MALME-3M melanoma; above 61.1 µM in the experiment on MDA-MB-231 breast; above 100 µM in the experiment with OVCAR-3 ovarian. Besides, the TGI in the experiment with SR leukemia, with SW-620 colon and in the experiment with UACC-257 melanoma was above 100 µM in each case.
Turning to `Clc1ccc(SCCSCCCCCCCCCCSCCSc2ccc(Cl)cc2)cc1`, the TGI with EKVX NSCLC, in the experiment on HOP-62 NSCLC, in the experiment on MALME-3M melanoma, in the experiment on OVCAR-3 ovarian, with SW-620 colon and in the experiment on UACC-257 melanoma was above 100 µM in each case.
For the molecule `COc1cc2c(c(C)c1O)[C@H]1COc3ccccc3[C@H]1O2`, the TGI in the experiment on EKVX NSCLC is 74.7 µM; with HOP-62 NSCLC, above 100 µM; with MALME-3M melanoma, 89.1 µM; with OVCAR-3 ovarian, above 100 µM; with UACC-257 melanoma, 52.9 µM.
For the molecule `COC(=O)C1=C(C(=O)OC)C2(OC(C)=O)c3ccccc3-c3ccccc3C12` (stereo not given), the TGI in the experiment on EKVX NSCLC stood at 24.1 µM; with HOP-62 NSCLC, 48.3 µM; with MALME-3M melanoma it was 5.83 µM; in the experiment on OVCAR-3 ovarian it was 9.94 µM; in the experiment with SR leukemia, 16.5 µM; in the experiment with SW-620 colon, 3.12 µM. Besides, in the experiment on UACC-257 melanoma, the TGI is 11.8 µM.
`CON(C)C(C#N)=C(C#N)C#N`: the TGI with EKVX NSCLC, in the experiment on HOP-62 NSCLC, in the experiment with HS 578T breast, in the experiment with MALME-3M melanoma, in the experiment on MDA-MB-231 breast and with OVCAR-3 ovarian was above 10 µM each time. For the same molecule, the TGI in the experiment with SR leukemia and in the experiment on SW-620 colon was above 10 µM in each case.
For the molecule `COc1cc(-c2oc3c(OC)c(O)c(OC)c(O)c3c(=O)c2OC)cc(O)c1OC`, the TGI is above 100 µM in the experiment on EKVX NSCLC; above 100 µM in the experiment with HOP-62 NSCLC; 99.4 µM in the experiment on MALME-3M melanoma; above 100 µM with MDA-MB-231 breast; 63.3 µM with OVCAR-3 ovarian; above 100 µM with SW-620 colon. In the experiment with UACC-257 melanoma, this molecule registered a TGI above 100 µM.
`CCCn1c(SCC)c2ccccc2c1-c1nc(F)nc(F)n1`: the TGI in the experiment with EKVX NSCLC, in the experiment on HOP-62 NSCLC, in the experiment on MALME-3M melanoma, in the experiment with OVCAR-3 ovarian, in the experiment with SR leukemia and in the experiment on SW-620 colon was above 100 µM each time.
`COc1ccc(C2C3C(=O)C=CC(=O)C3[C@@H]2C)cc1OC` (stereo not given in full): the TGI with EKVX NSCLC, in the experiment on HOP-62 NSCLC, in the experiment with MALME-3M melanoma, with OVCAR-3 ovarian, in the experiment with SW-620 colon and in the experiment on UACC-257 melanoma was above 100 µM each time.
